Test results as given in ChEMBL document CHEMBL4483862, “Open-source discovery of chemical leads for next-generation chemoprotective antimalarials” (2018).

Test system: Plasmodium berghei
Assay: Luciferase/luciferin-expressing antifolate-resistant parasites were used to infect a culture of HepG2 cells that were pre-incubated with compounds. Infected hepatocytes emit light due to the luciferase reaction. Assay results are presented as the percent inhibition of light emission compared to control. […]
Assay type: functional
Conditions: sporozoite; for IC90: read-out: LUCIFERASE INFECTION ASSAY - IC90
[1] = read-out: LUCIFERASE INFECTION ASSAY - IC50

| Structure (SMILES) | IC90 [µM] | IC50 [1] [µM] | also measured |
| --- | --- | --- | --- |
| O=C(Nc1ccc(SC(F)(F)F)cc1)Nc1cccnc1N1CCC(C(F)(F)F)CC1 | 2.33 |  | IC50 (HEPG2TOX_HILL_SLOPE 11.5, HEPG2TOX_R_SQUARED 0.688, PBLUC_HILL_SLOPE 15.9, PBLUC_R_SQUARED 0.276, read-out: LUCIFERASE INFECTION ASSAY - IC50): 2.03 µM |
| N#CC(C#N)=NNc1ccc(-n2ccc(C(F)(F)F)n2)cc1 | > 10.8 | 4.97 |  |
| CCOc1ccc(/C=C/C2=Cc3c(sc(NC(=O)COC(=O)c4cccc(S(=O)(=O)N5CCc6ccccc65)c4)c3C#N)C(C)(C)C2)cc1 | > 10 |  | IC50 (FFLUC_HILL_SLOPE 15.6, FFLUC_R_SQUARED 0.606, read-out: LUCIFERASE INFECTION ASSAY - IC50): > 10 µM |
| O=C(N/N=C/c1c2ccccc2cc2ccccc12)c1ccc(Br)cc1 | > 8.18 | > 8.18 |  |
| O=[N+]([O-])c1ccc(Oc2cncc(Cl)c2)c(-c2nnc(-c3ccc(C(F)(F)F)cc3)o2)c1 | > 7.13 |  | IC50 (HEPG2TOX_HILL_SLOPE 2.45, HEPG2TOX_R_SQUARED 0.932, PBLUC_HILL_SLOPE 14.3, PBLUC_R_SQUARED 0.511, read-out: LUCIFERASE INFECTION ASSAY - IC50): 6.55 µM |
| CCCCNC(=S)Nc1cc(C(F)(F)F)ccc1N1CCOCC1 | > 10 | > 10 |  |
| O=C1C=CC(=O)N1Cc1ccc2c(c1)OCO2 | 13.4 |  | IC50 (PBLUC_HILL_SLOPE 13.6, PBLUC_R_SQUARED 0.619, read-out: LUCIFERASE INFECTION ASSAY - IC50): 11.4 µM |
| CCCC1NC(=O)N(CC(O)COc2cccc(C(=O)OCC)c2)C1=O (stereo unspecified) | > 10 | > 10 |  |
| Cc1ccc2c(Cl)c(C(=O)Nc3nonc3-c3ccc(F)cc3)sc2c1 | 3.32 | 1.77 |  |
| CC1C(=O)Nc2ccc(-c3csc(-c4ccc(NC(=O)c5ccco5)cc4)n3)cc21 (stereo unspecified) | > 10 | > 10 |  |
| CSc1nncn1-c1ccccc1 | 15.4 |  | IC50 (PBLUC_HILL_SLOPE 3.17, PBLUC_R_SQUARED 0.315, read-out: LUCIFERASE INFECTION ASSAY - IC50): 7.69 µM |
| Cc1ccc(S(=O)(=O)Nc2ccc(Nc3nccn4c(-c5cccc(OC(F)(F)F)c5)cnc34)cc2)cc1 | > 6.12 |  | IC50 (PBLUC_HILL_SLOPE 2.83, PBLUC_R_SQUARED 0.42, read-out: LUCIFERASE INFECTION ASSAY - IC50): 3 µM |
| Cc1c(Cl)cccc1N=C(SCC(=O)N(C)C1CCCCC1)C(C#N)c1nc2ccccc2s1 (stereo unspecified) | > 10 | > 10 |  |
| O=C(Nc1ccc(N2CCCC2)cn1)c1cc(Cl)ccn1 | 2.06 |  | IC50 (PBLUC_HILL_SLOPE 0.363, 0.720, PBLUC_R_SQUARED 0.388, 0.822, read-out: LUCIFERASE INFECTION ASSAY - IC50): 0.119 µM |
| CC(C)(C)c1ccc(C(=O)N/N=C/c2cc(Cl)cc(Cl)c2O)cc1 | > 9.03 | > 9.03 |  |
| CC(C)(C)c1csc(NC(=O)Nc2ccc(Cl)cc2)n1 | > 10.7 |  | IC50 (HEPG2TOX_HILL_SLOPE 9.42, HEPG2TOX_R_SQUARED 0.969, PBLUC_HILL_SLOPE 14.5, PBLUC_R_SQUARED 0.489, read-out: LUCIFERASE INFECTION ASSAY - IC50): 9.21 µM |
| Cc1cc(C(=O)C(C)OC(=O)c2ccc(S(=O)(=O)N3CC(C)CC(C)C3)cc2)c(C)n1-c1ccc(Cl)cc1 (stereo unspecified) | 3.47 |  | IC50 (FFLUC_HILL_SLOPE 16.1, FFLUC_R_SQUARED 0.63, HEPG2TOX_HILL_SLOPE 1.41, HEPG2TOX_R_SQUARED 0.912, PBLUC_HILL_SLOPE 53.4, PBLUC_R_SQUARED 0.359, read-out: LUCIFERASE INFECTION ASSAY - IC50): 3.33 µM |
| CC1CSC(N(C(=O)COc2ccccc2F)c2ccc(Cl)cc2)=N1 (stereo unspecified) | > 10 | > 10 |  |
| C/C=C(/C(=C/C)c1ccc(O)cc1)c1ccc(O)cc1 [DIENESTROL] | > 12.4 |  | IC50 (FFLUC_HILL_SLOPE 1.35, FFLUC_R_SQUARED 0.489, HEPG2TOX_HILL_SLOPE 1.17, HEPG2TOX_R_SQUARED 0.908, PBLUC_HILL_SLOPE 0.733, PBLUC_R_SQUARED 0.69, read-out: LUCIFERASE INFECTION ASSAY - IC50): 1.24 µM |
| O=C(COc1ccc(Oc2ccccc2)cc1)NCc1cn2ccccc2n1 | 1.77 |  | IC50 (HEPG2TOX_HILL_SLOPE 0.752, HEPG2TOX_R_SQUARED 0.901, PBLUC_HILL_SLOPE 2.64, PBLUC_R_SQUARED 0.419, read-out: LUCIFERASE INFECTION ASSAY - IC50): 0.772 µM |
| COc1ccc(Nc2cc(C)nc(Nc3ccc(OC)cc3)n2)cc1 | 3.93 |  | IC50 (HEPG2TOX_HILL_SLOPE 1.69, HEPG2TOX_R_SQUARED 0.922, PBLUC_HILL_SLOPE 13, PBLUC_R_SQUARED 0.323, read-out: LUCIFERASE INFECTION ASSAY - IC50): 3.32 µM |
| C=CCN(c1cccc(C(F)(F)F)c1)S(=O)(=O)c1cc(C(=O)Nc2ccc3c(c2)CCC3)ccc1Cl | > 10 | > 10 |  |

| Structure (SMILES) | IC90 [µM] | IC50 [1] [µM] | also measured |
| --- | --- | --- | --- |
| CC(=O)n1c(Nc2ccc(F)cc2)c(Sc2ccccc2[N+](=O)[O-])c2ccccc2c1=O | > 10 | 5.95 |  |
| N#C/C(=N\Nc1cccc(Cl)c1)C(=O)c1cc(-c2ccccc2)c(C(F)(F)F)s1 | 1.5 |  | IC50 (HEPG2TOX_HILL_SLOPE 1.47, HEPG2TOX_R_SQUARED 0.986, PBLUC_HILL_SLOPE 2.41, PBLUC_R_SQUARED 0.872, read-out: LUCIFERASE INFECTION ASSAY - IC50): 0.605 µM |
| Cc1cnc(NC(=O)Cc2ccc3c(c2)CCC(C)(C)O3)s1 | 4.6 |  | IC50 (PBLUC_HILL_SLOPE 9.94, PBLUC_R_SQUARED 0.592, read-out: LUCIFERASE INFECTION ASSAY - IC50): 3.68 µM |
| O=C1CCCN1c1ccc(C2=NNC(=NC3CC3)SC2)cc1 | 0.932 |  | IC50 (FFLUC_HILL_SLOPE 1.46, FFLUC_R_SQUARED 0.93, PBLUC_HILL_SLOPE 0.517, PBLUC_R_SQUARED 0.899, read-out: LUCIFERASE INFECTION ASSAY - IC50): 0.0133 µM |
| O=S(=O)(NCc1cc(Cl)cc(Cl)c1)c1cc(C(F)(F)F)cc(C(F)(F)F)c1 | > 7.3 |  | IC50 (PBLUC_HILL_SLOPE 3.39, PBLUC_R_SQUARED 0.218, read-out: LUCIFERASE INFECTION ASSAY - IC50): 6.75 µM |
| COc1cc2c(cc1OC)C(c1cccs1)N(Cc1cc(-c3ccco3)on1)CC2 (stereo unspecified) | > 10 |  | IC50 (HEPG2TOX_HILL_SLOPE 7.23, HEPG2TOX_R_SQUARED 0.683, PBLUC_HILL_SLOPE 1.88, PBLUC_R_SQUARED 0.215, read-out: LUCIFERASE INFECTION ASSAY - IC50): 9.72 µM |
| COc1ccc(N(CCC(N)=O)C(=O)CSc2nc3ccccc3n2-c2ccc(OC)cc2)cc1 | > 10 |  | IC50 (FFLUC_HILL_SLOPE 0.23, FFLUC_R_SQUARED 0.0771, read-out: LUCIFERASE INFECTION ASSAY - IC50): > 10 µM |
| Cc1c(C(=O)C(F)(F)F)c(-c2nn(-c3ccccc3)c(NC(=O)C(F)(F)F)c2C(=O)C(F)(F)F)c(C)n1-c1ccc(Br)cc1 | > 10 |  | IC50 (FFLUC_HILL_SLOPE 15.1, FFLUC_R_SQUARED 0.397, PBLUC_HILL_SLOPE 2.07, PBLUC_R_SQUARED 0.0694, read-out: LUCIFERASE INFECTION ASSAY - IC50): 6.64 µM |
| CC1Sc2ccc(Cl)cc2C(=O)/C1=C/c1ccc(C(F)(F)F)cc1 (stereo unspecified) | > 8.95 |  | IC50 (PBLUC_HILL_SLOPE 11.4, PBLUC_R_SQUARED 0.0512, read-out: LUCIFERASE INFECTION ASSAY - IC50): > 8.95 µM |
| O=C(Nc1cccc(Cl)c1)c1csc(C(O)C2CCCCC2)n1 (stereo unspecified) | > 10 | > 10 |  |
| O=C(Nc1ccc(OC(F)(F)F)cc1)Nc1ccc2nc(-c3ccoc3)nn2c1 | > 10 | 10 |  |
| CCCNc1nc(-c2ccccc2)c(C(=O)OCC)cc1C#N | 3.12 |  | IC50 (HEPG2TOX_HILL_SLOPE 1.25, HEPG2TOX_R_SQUARED 0.958, PBLUC_HILL_SLOPE 3.81, PBLUC_R_SQUARED 0.673, read-out: LUCIFERASE INFECTION ASSAY - IC50): 1.75 µM |
| FC(F)(F)Oc1cccc(-c2ccc3ncc(-c4ccoc4)n3n2)c1 | > 10 | > 10 |  |
| O=C(NCCc1c[nH]c2ccccc12)c1ccc2c(c1)CC(c1ccccc1)OC2=O (stereo unspecified) | > 10 | > 10 |  |
| COc1ccc(-c2cnc3cnc(-c4ccccc4C)cn23)cn1 | 4.17 | 2.21 |  |
| Cc1c(Cl)cccc1NC(=O)CCc1nc(C(C)C)no1 | > 10 |  | IC50 (FFLUC_HILL_SLOPE 18.3, FFLUC_R_SQUARED 0.35, read-out: LUCIFERASE INFECTION ASSAY - IC50): > 10 µM |
| Cc1ccc(-n2c(Sc3ccc4nnnn4n3)nc3sc4c(c3c2=O)CCC(C)C4)cc1C (stereo unspecified) | > 10 |  | IC50 (FFLUC_HILL_SLOPE 3.23, FFLUC_R_SQUARED 0.696, PBLUC_HILL_SLOPE 2.23, PBLUC_R_SQUARED 0.861, read-out: LUCIFERASE INFECTION ASSAY - IC50): 4.15 µM |
| C/C(=N\Nc1nc2ccccc2[nH]1)c1ccc2c(c1)OCO2 | 4.99 | 4.04 |  |
| O=S(=O)(NCC(Sc1nnc(Nc2ccccc2)s1)c1ccccc1)c1ccc(Cl)cc1 (stereo unspecified) | > 10 |  | IC50 (PBLUC_HILL_SLOPE 13.6, PBLUC_R_SQUARED 0.626, read-out: LUCIFERASE INFECTION ASSAY - IC50): 9.35 µM |
| COc1cc2c(cc1OC)C(c1cccs1)N(C(=O)Nc1cc(C)on1)CC2 (stereo unspecified) | 2.7 |  | IC50 (HEPG2TOX_HILL_SLOPE 0.982, HEPG2TOX_R_SQUARED 0.92, PBLUC_HILL_SLOPE 3.46, PBLUC_R_SQUARED 0.391, read-out: LUCIFERASE INFECTION ASSAY - IC50): 1.43 µM |
| Fc1ccc(Nc2nccc3c2ncn3Cc2ccccc2)cc1Cl | > 10 |  | IC50 (PBLUC_HILL_SLOPE 1.48, PBLUC_R_SQUARED 0.272, read-out: LUCIFERASE INFECTION ASSAY - IC50): 3.67 µM |
